Consider 28 compounds from patent publication US20240327429A1, “[1,3]Thiazolo[4,5-d]-pyrimidon-7-ones as inhibitors of NOX4” (Boehringer Ingelheim International GmbH, priority 2023, published 2024).

Data set [1] addresses T1, NOX2 (Homo sapiens, UniProt P04839).
T1 construct: endogenous in cells; host or cells: freshly isolated human blood-derived granulocytes
T1 sequence (P04839 2-570 limits assumed): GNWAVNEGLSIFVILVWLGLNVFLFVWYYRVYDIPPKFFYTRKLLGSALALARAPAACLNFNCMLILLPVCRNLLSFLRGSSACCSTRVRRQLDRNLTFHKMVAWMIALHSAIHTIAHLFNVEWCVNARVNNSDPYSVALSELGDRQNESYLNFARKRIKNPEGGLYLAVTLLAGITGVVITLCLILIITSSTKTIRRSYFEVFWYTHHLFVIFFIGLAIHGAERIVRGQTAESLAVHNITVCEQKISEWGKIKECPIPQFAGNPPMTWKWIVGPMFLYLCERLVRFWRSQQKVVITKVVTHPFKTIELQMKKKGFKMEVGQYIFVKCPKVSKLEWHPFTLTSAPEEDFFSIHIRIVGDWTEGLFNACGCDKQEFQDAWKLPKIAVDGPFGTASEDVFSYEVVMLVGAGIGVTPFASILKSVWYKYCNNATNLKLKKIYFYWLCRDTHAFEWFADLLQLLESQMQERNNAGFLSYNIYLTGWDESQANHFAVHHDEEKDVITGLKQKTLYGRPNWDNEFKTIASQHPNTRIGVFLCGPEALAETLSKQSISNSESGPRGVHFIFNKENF
T1 sequence (P13498 2-195 partner limits assumed): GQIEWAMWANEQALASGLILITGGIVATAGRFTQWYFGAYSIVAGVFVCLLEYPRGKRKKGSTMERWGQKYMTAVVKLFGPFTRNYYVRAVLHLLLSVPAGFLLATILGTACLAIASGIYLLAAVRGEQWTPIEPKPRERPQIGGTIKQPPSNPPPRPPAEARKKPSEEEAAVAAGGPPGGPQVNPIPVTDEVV
In words: NOX2 inhibition assay (L-012), human blood-derived granulocytes. Conditions: fMLP/PMA stimulated. Type of data set: cell-based. The procedure: Evaluation of the NOX4 inhibitors on NOX2 activity is assessed in human blood-derived granulocytes.
Afterwards, freshly isolated granulocytes are added to the wells containing the compounds in assay buffer and incubated for 1 h at 37° C. Next, a solution of Nformylmethionine-leucyl-phenylalanine (fMLP; 730 nM), phorbol myristate acetate (PMA, 100 nM) (stimuli of ROS production) and L-012 (200 μM, ROS indicator) is added to the wells and the cells are incubated for additional 30 mins at 37° C. Afterwards luminescence is measured in a SpectraMax M5 microplate reader.

The target of data set [2] is T2, human NOX4 (hNOX4) (Homo sapiens, UniProt Q9NPH5).
T2 sequence (Q9NPH5 1-578): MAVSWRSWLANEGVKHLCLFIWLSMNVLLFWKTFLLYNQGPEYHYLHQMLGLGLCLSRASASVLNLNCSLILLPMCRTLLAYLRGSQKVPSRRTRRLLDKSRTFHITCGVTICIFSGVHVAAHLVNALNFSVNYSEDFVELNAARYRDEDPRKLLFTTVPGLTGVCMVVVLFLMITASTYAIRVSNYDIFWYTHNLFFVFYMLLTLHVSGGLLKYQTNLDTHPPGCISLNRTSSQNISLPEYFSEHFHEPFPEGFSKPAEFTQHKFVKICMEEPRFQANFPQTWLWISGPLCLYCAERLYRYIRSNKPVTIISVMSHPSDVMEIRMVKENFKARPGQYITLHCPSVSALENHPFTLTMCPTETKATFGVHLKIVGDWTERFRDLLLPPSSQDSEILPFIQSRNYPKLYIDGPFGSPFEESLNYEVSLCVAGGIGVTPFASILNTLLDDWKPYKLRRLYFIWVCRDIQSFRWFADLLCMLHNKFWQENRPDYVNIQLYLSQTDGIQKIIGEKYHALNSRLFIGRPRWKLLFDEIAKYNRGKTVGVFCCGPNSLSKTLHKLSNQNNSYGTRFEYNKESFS
T2 sequence (P13498 2-195 partner limits assumed): T1 sequence (P13498 2-195 partner limits assumed)
In words: cell-based.
Description: The synthetic gene phNOX4_DNA3_1_Zeo (Accession: AAF68973) is assembled from synthetic oligonucleotides and/or PCR products. The fragment is cloned into pcDNA3.1_Zeo_A011 using NheI and XhoI cloning sites. The plasmid DNA is purified from transformed bacteria and its concentration is determined by UV spectroscopy. The final construct is verified by sequencing. The plasmid is transfected via electroporation (Amaxa electroporation device) in combination with Nucleofector Kit V. Selection of NOX4 overexpressing genes is achieved using selection antibiotic Zeocin.
The inhibitory activity of the example compounds of the invention is determined using the following procedure:
Cells are cultured in the Dulbecco's Modified Eagle Medium (DMEM) media containing 4.5 g/L glucose supplemented with 10% fetal calf serum and 250 μg/ml Zeocin in an incubator at 37° C. with 5% CO2. For the assay, cells are seeded in 384 well plates.
After incubation Lumigen HyPerBlu™ is added and cells are incubated for additional 30 min at 24° C. in a humidified incubator. Next, luminescence is measured using an Envision Multimode Plate reader to determine levels of produced H2O2 in the wells.

Data set [3] concerns human hepatocytes. The data set is described as follows: Evaluation of hepatocyte clearance (metabolic stability). Conditions: 1 μM test compound, 5% human serum, Table 3. Type of data set: in vitro ADME. As for the experimental part:
The metabolic degradation of the test compound is assayed in a hepatocyte suspension. Hepatocytes (cryopreserved) are incubated in Dulbecco's modified eagle medium (supplemented with […] glucagon/500 mL, 2.5 mg insulin/500 mL and 3.75 mg/500 mL hydrocortisone) containing 5% human serum.
Following a 30 min preincubation in an incubator (37° C., 10% CO2) 5 μl of test compound solution (80 μM; from 2 mM in DMSO stock solution diluted 1:25 with medium) are added into 395 μl hepatocyte suspension (cell density in the range 0.25-5 Mio cells/mL, typically 1 Mio cells/mL; final concentration of test compound 1 μM, final DMSO concentration 0.05%).
The cells are incubated for six hours (incubator, orbital shaker) and samples (25 μl) are taken at 0, 0.5, 1, 2, 4 and 6 hours. Samples are transferred into acetonitrile and pelleted by centrifugation (5 min). The supernatant is transferred to a new 96-deepwell plate, evaporated under nitrogen and resuspended.
Decline of Parent Compound is Analyzed by HPLC-MS/MS.
CLint is Calculated as Follows:
CL_[…]=Dose/AUC=(C0/CD)/(AUD+clast/k)×1000/60. • C0: initial concentration in the incubation [μM], CD: cell density of vital cells [10^6 cells/mL], AUD: area under the data [μM×h], clast: concentration of last data point [μM], • k: slope of the regression line for parent decline [h-1].
The calculated in vitro hepatic intrinsic clearance can be scaled up to the intrinsic in vivo hepatic clearance and used to predict hepatic in vivo blood clearance (CL) by the use of a liver model (well stirred model).
CL_[…]_INVIVO[ml/min/kg]=(CL_[…][μL/min/10^6 cells]×hepatocellularity[10^6 cells/g liver]×liver factor[g/kg bodyweight])/1000
CL[ml/min/kg]=CL_[…]_INVIVO[ml/min/kg]×hepatic blood flow[ml/min/kg]/(CL_[…]_INVIVO[ml/min/kg]+hepatic blood flow[ml/min/kg])

Each structure is given as a SMILES string. pIC50: −log10 of the molar value. Several values for one entry are separate records, joined by “and”; a condition that tells them apart may be missing. Identical values can stand only once.

Take `Cc1cc(F)cc(C)c1CSc1nc2ncsc2c(=O)n1-c1ccc(O)nn1` [Example 63]: the negative logarithm of the IC50 (pIC50) in data set [1] was 4.34; in data set [2] it was 6.90.
On to `O=c1c2scnc2nc(SCc2c(F)cc(F)cc2F)n1-c1cnc(O)cn1` [Example 69, 6-(5-Hydroxypyrazin-2-yl)-5-((2,4,6-trifluorobenzyl)thio)thiazolo[4,5-d]pyrimidin-7(6H)-one], for which the figures for the pIC50 in data set [1] and in data set [2] were under 4.00 and 7.19, respectively. Besides, the “Qh [%]” value in data set [3] is reported as under 4%.
The corresponding values for `Cc1cc(Cl)ccc1CSc1nc2ncsc2c(=O)n1-c1cnc(O)c(F)c1` [Example 37] are under 4.00, 7.47 and 16%.
For `O=c1c2scnc2nc(SCc2ccc(C(F)(F)F)cc2F)n1-c1ccc(O)nn1` [Example 65], the pIC50 in data set [1] was under 4.00; in data set [2], 6.86. Besides, in data set [3], the “Qh [%]” value came out at 50%.
In the case of `Cc1cc(F)ccc1CSc1nc2ncsc2c(=O)n1-c1ccc(O)nc1` [Example 29], the pIC50 in data set [1] was 4.43; in data set [2], 6.82 and 6.84. Also, the “Qh [%]” value in data set [3] is 54%.
On to `Cc1cc(F)cc(C)c1CSc1nc2ncsc2c(=O)n1-c1ccc(O)nc1` [Example 24], for which the results for the pIC50 in data set [1] and in data set [2] were 4.99 and 7.01, respectively. In data set [3], the “Qh [%]” value amounted to 45%.
Consider `O=c1c2scnc2nc(SCc2ccc(Cl)cc2F)n1-c1cc(F)c(O)c(F)c1` [Example 2, 5-((4-Chloro-2-fluorobenzyl)thio)-6-(3,5-difluoro-4-hydroxyphenyl)thiazolo[4,5-d]-pyrimidin-7(6H)-one], for which the pIC50 in data set [1] is under 4.00; in data set [2], 7.41. In data set [3], the “Qh [%]” value was 53%.
Consider `O=c1c2scnc2nc(SCc2c(F)cc(F)cc2F)n1-c1ccc(O)c(F)c1` [Example 11], for which the values for the negative logarithm of the IC50 (pIC50) in data set [1] and in data set [2] were under 4.52 and 7.38, respectively. In addition, the “Qh [%]” value in data set [3] was 79%.
`O=c1c2scnc2nc(SCc2ccc(F)cc2F)n1-c1cnc(O)c(F)c1` [Example 38]: the negative logarithm of the IC50 (pIC50) is under 4.00 in data set [1] and 7.32 in data set [2]. For the same compound, the “Qh [%]” value in data set [3] was determined as 11%.
The corresponding values for `O=c1c2scnc2nc(SCc2ccc(Cl)cc2F)n1-c1ccc(O)nc1` [Example 22, 5-((4-Chloro-2-fluorobenzyl)thio)-6-(6-hydroxypyridin-3-yl)thiazolo[4,5-d]pyrimidin-7(6H)-one] are under 4.52, 7.16 and 45%.
`O=c1c2scnc2nc(SCc2c(F)cc(F)cc2F)n1-c1cc(F)c(O)cc1F` [Example 10, 6-(2,5-Difluoro-4-hydroxyphenyl)-5-((2,4,6-trifluorobenzyl)thio)thiazolo[4,5-d]pyrimidin-7(6H)-one]: the negative logarithm of the IC50 (pIC50) in data set [1] is under 4.52; in data set [2] it was 7.57. For the same compound, the “Qh [%]” value in data set [3] turned out to be 72%.
Taken in the same sequence, the figures for `O=c1c2scnc2nc(SCc2c(F)cc(F)cc2F)n1-c1ccc(O)nn1` [Example 67] were under 4.52, 6.78 and 37%.
Taken in the same sequence, the figures for `O=c1c2scnc2nc(SCc2ccc(C(F)(F)F)cc2F)n1-c1ccc(O)nc1` [Example 26] were under 4.00, 6.92 and 41%.
For the compound `O=c1c2scnc2nc(SCc2ccc(Cl)cc2F)n1-c1cnc(O)nc1` [Example 53, 5-((4-Chloro-2-fluorobenzyl)thio)-6-(2-hydroxypyrimidin-5-yl)thiazolo[4,5-d]pyrimidin-7(6H)-one], the figures for the pIC50 in data set [1] and in data set [2] were under 4.00 and 6.94, respectively. Moreover, the “Qh [%]” value in data set [3] is given as 13%.
`O=c1c2scnc2nc(SCc2c(F)cc(F)cc2F)n1-c1ccc(O)cc1Cl` [Example 17] showed a pIC50 in data set [2] of 6.50. In addition, the “Qh [%]” value in data set [3] is 70%.
With `Cc1cc(Cl)ccc1CSc1nc2ncsc2c(=O)n1-c1cnc(O)nc1` [Example 54], the pIC50 in data set [1] was under 4.00; in data set [2], 6.95. Also, in data set [3], the “Qh [%]” value is 33%.
The corresponding values for `O=c1c2scnc2nc(SCc2ccc(C(F)(F)F)cc2)n1-c1ccc(O)nc1` [Example 27] are under 4.00, 6.87 and 37%.
Taken in the same sequence, the figures for `O=c1c2scnc2nc(SCc2c(F)cc(F)cc2F)n1-c1cc(F)c(O)cn1` [Example 20] were under 4.00, 6.90 and 51%.
As for `O=c1c2scnc2nc(SCc2c(F)cc(F)cc2F)n1-c1cc(F)c(O)c(F)c1` [Example 8], the pIC50 in data set [1] is under 4.52; in data set [2] it was 7.37. Also, in data set [3], the “Qh [%]” value is given as 42%.
Take `O=c1c2scnc2nc(SCc2ccc(Cl)cc2)n1-c1cnc(O)c(F)c1` [Example 33]: the figures for the pIC50 in data set [1] and in data set [2] were under 4.00 and 7.54, respectively. The “Qh [%]” value in data set [3] is reported as 15%.
Take `O=c1c2scnc2nc(SCc2ccc(C(F)(F)F)cc2F)n1-c1cc(F)c(O)c(F)c1` [Example 6]: the results for the pIC50 in data set [1] and in data set [2] were under 4.00 and 7.06, respectively.
`O=c1c2scnc2nc(SCc2c(F)cc(F)cc2F)n1-c1ccc(O)c(Cl)c1` [Example 16]: the values for the pIC50 in data set [1] and in data set [2] were under 4.00 and 6.44, respectively. Moreover, the “Qh [%]” value in data set [3] stood at 73%.
Take `Cc1cc(F)cc(C)c1CSc1nc2ncsc2c(=O)n1-c1cnc(O)c(F)c1` [Example 43]: the pIC50 in data set [1] is under 4.00; in data set [2] it was 7.20. Also, the “Qh [%]” value in data set [3] is 37%.
As to `Cc1cc(Cl)ccc1CSc1nc2ncsc2c(=O)n1-c1cc(F)c(O)c(F)c1` [Example 3], the pIC50 in data set [1] is under 4.00; in data set [2], 7.14.
The corresponding values for `Cc1c(F)cccc1CSc1nc2ncsc2c(=O)n1-c1cnc(O)c(F)c1` [Example 40] are under 4.00 and 7.23.
Turning to `Cc1cc(F)ccc1CSc1nc2ncsc2c(=O)n1-c1ccc(O)nn1` [Example 68], the pIC50 was under 4.00 in data set [1] and 6.84 in data set [2].
Turning to `O=c1c2scnc2nc(SCc2c(F)cc(F)cc2F)n1-c1ccc(O)cn1` [Example 19], the pIC50 in data set [1] is 4.32. Also, the “Qh [%]” value in data set [3] is listed as 52%.
In the case of `O=c1c2scnc2nc(SCc2c(F)cc(F)cc2F)n1-c1c(F)cc(O)cc1F` [Example 13], the pIC50 in data set [1] is 4.07; in data set [2], 7.21.
